According to ChEMBL document CHEMBL3102829, “Resveratrol oligomers inhibit biofilm formation of Escherichia coli O157:H7 and Pseudomonas aeruginosa” (J Nat Prod, 2014):
The source made the active and inactive calls. The calls are words filed in the database; no cut-off is given here.

Columns and labels:
Escherichia coli [1] = experiment: Antibiofilm activity against Escherichia coli O157:H7 assessed as induction of fliA gene expression at 20 ug/ml after 5 hrs by qRT-PCR analysis; type: functional, organism-based
Escherichia coli [2] = experiment: Antibiofilm activity against Escherichia coli O157:H7 assessed as induction of flhD gene expression at 20 ug/ml after 5 hrs by qRT-PCR analysis; type: functional, organism-based
Escherichia coli [3] = experiment: Antibiofilm activity against Escherichia coli O157:H7 after 24 hrs by spectrophotometry; type: functional, organism-based
Pseudomonas aeruginosa [4] = experiment: Antibiofilm activity against Pseudomonas aeruginosa PA14 after 24 hrs by spectrophotometry; type: functional, organism-based
Escherichia coli [5] = experiment: Antibiofilm activity against Escherichia coli O157:H7 after 24 hrs by GFP-based confocal laser microscopy; type: functional, organism-based
Escherichia coli [6] = experiment: Antibiofilm activity against Escherichia coli O157:H7 assessed as induction of motB gene expression at 20 ug/ml after 5 hrs by qRT-PCR analysis; type: functional, organism-based
Escherichia coli [7] = experiment: Antibiofilm activity against Escherichia coli O157:H7 assessed as induction of qseB gene expression at 20 ug/ml after 5 hrs by qRT-PCR analysis; type: functional, organism-based
Pseudomonas aeruginosa [8] = experiment: Antibiofilm activity against Pseudomonas aeruginosa PA14 after 24 hrs by GFP-based confocal laser microscopy; type: functional, organism-based
Escherichia coli [9] = experiment: Antibiofilm activity against Escherichia coli O157:H7 assessed as repression of csgF expression at 20 ug/ml after 5 hrs by qRT-PCR analysis; type: functional, organism-based
Escherichia coli [10] = experiment: Antibiofilm activity against Escherichia coli O157:H7 assessed as repression of csgC expression at 20 ug/ml after 5 hrs by qRT-PCR analysis; type: functional, organism-based
Escherichia coli [11] = experiment: Antibiofilm activity against Escherichia coli O157:H7 assessed as repression of csgG expression at 20 ug/ml after 5 hrs by qRT-PCR analysis; type: functional, organism-based
Escherichia coli [12] = experiment: Antibiofilm activity against Escherichia coli O157:H7 assessed as repression of csgD expression at 20 ug/ml after 5 hrs by qRT-PCR analysis; type: functional, organism-based
Escherichia coli [13] = experiment: Antibiofilm activity against Escherichia coli O157:H7 assessed as effect on rrsG expression at 20 ug/ml after 5 hrs by qRT-PCR analysis; type: functional, organism-based
Escherichia coli [14] = experiment: Antibiofilm activity against Escherichia coli O157:H7 assessed as repression of csgA expression at 20 ug/ml after 5 hrs by qRT-PCR analysis; type: functional, organism-based
Escherichia coli [15] = experiment: Antibiofilm activity against Escherichia coli O157:H7 assessed as repression of csgB expression at 20 ug/ml after 5 hrs by qRT-PCR analysis; type: functional, organism-based
Escherichia coli [16] = experiment: Antimicrobial activity against Escherichia coli O157:H7 by spectrophotometry; type: organism-based; conditions: in vivo
Escherichia coli [17] = experiment: Reduction in fimbriae production in Escherichia coli O157:H7 biofilm grown on nylon filter at 20 ug/ml after 24 hrs by scanning electron microscopy; type: functional, organism-based
Escherichia coli [18] = experiment: Antimicrobial activity against Escherichia coli O157:H7 assessed as growth inhibition up to 50 ug/ml by spectrophotometry; type: organism-based; conditions: in vivo
Pseudomonas aeruginosa [19] = experiment: Antibiofilm activity against Pseudomonas aeruginosa PA14 assessed as growth inhibition at 50 ug/ml by spectrophotometry; type: functional, organism-based
Escherichia coli [20] = experiment: Antibiofilm activity against Escherichia coli O157:H7 at 5 ug/ml after 24 hrs by spectrophotometry; type: functional; conditions: O157:H7, 24 h

SMILES	Activity (Escherichia coli [1])	Activity (Escherichia coli [2])	inhibition (Escherichia coli [3])	inhibition (Pseudomonas aeruginosa [4])	inhibition (Escherichia coli [5])	Activity (Escherichia coli [6])	Activity (Escherichia coli [7])	inhibition (Pseudomonas aeruginosa [8])	Activity (Escherichia coli [9])	Activity (Escherichia coli [10])	Activity (Escherichia coli [11])	Activity (Escherichia coli [12])	Activity (Escherichia coli [13])	Activity (Escherichia coli [14])	Activity (Escherichia coli [15])	growth inhibition (GI) (Escherichia coli [16])	Activity (Escherichia coli [17])	Activity (Escherichia coli [18])	inhibition (Pseudomonas aeruginosa [19])	inhibition at 5 µg/mL (Escherichia coli [20]) [%]
Oc1ccc([C@@H]2c3c(O)cc(O)cc3[C@@H]3c4c(cc(O)c5c4[C@@H]2[C@@H](c2ccc(O)cc2)[C@@H]5c2cc(O)cc(O)c2)O[C@@H]3c2ccc(O)cc2)cc1 (relative stereo)	inactive	inactive	Dose-dependent effect	Dose-dependent effect	Dose-dependent effect	inactive	inactive	Active	–	–	–	–	–	–	–	–	–	–	–	–
Oc1ccc([C@H]2c3c(O)cc(O)cc3[C@@H]3c4c(cc(O)c5c4[C@@H]2[C@@H](c2ccc(O)cc2)[C@@H]5c2cc(O)cc(O)c2)O[C@@H]3c2ccc(O)cc2)cc1 (relative stereo)	inactive	inactive	Dose-dependent effect	Dose-dependent effect	Dose-dependent effect	inactive	inactive	Active	Active	Active	Active	Active	inactive	Active	Active	–	–	–	–	–
Oc1ccc(/C=C/c2cc(O)cc3c2[C@@H](c2cc(O)cc(O)c2)[C@H](c2ccc(O)cc2)O3)cc1 [EPSILON-VINIFERIN]	inactive	inactive	Dose-dependent effect	–	–	inactive	inactive	–	Active	Active	Active	Active	inactive	Active	Active	Dose-dependent effect	Active	–	–	–
Oc1ccc(/C=C/c2cc(O)cc(O)c2)cc1 [RESVERATROL]	–	–	Dose-dependent effect	Active	–	–	–	Active	Active	Active	Active	Active	inactive	Active	Active	Dose-dependent effect	Active	–	–	–
Oc1ccc([C@H]2c3c(O)cc(O)cc3[C@H]3c4c(cc(O)cc4[C@@H]2c2cc(/C=C/c4cc(O)cc5c4[C@H](c4cc(O)cc(O)c4)[C@@H](c4ccc(O)cc4)O5)ccc2O)O[C@@H]3c2ccc(O)cc2)cc1 [VITISIN A]	inactive	inactive	inactive	Dose-dependent effect	–	inactive	inactive	Active	–	–	–	–	–	–	–	–	–	Non-toxic	–	–
Oc1ccc([C@H]2Oc3cc(O)cc(/C=C/c4ccc5c(c4)[C@@H](c4cc(O)cc6c4[C@H](c4cc(O)cc(O)c4)[C@@H](c4ccc(O)cc4)O6)[C@H](c4ccc(O)cc4)O5)c3[C@@H]2c2cc(O)cc(O)c2)cc1 [VITISIN B]	Active	Active	Dose-dependent effect	Dose-dependent effect	Dose-dependent effect	Active	Active	Active	Active	Active	Active	Active	inactive	Active	Active	–	Active	Non-toxic	inactive	> 90
